Results reported in patent publication US11648254B2 (Kumquat Biosciences Inc., priority 2021, dated 2023).
Like-named read-outs stand apart in the source and are kept apart here.

Key:
SOS1 = SOS1 (Homo sapiens (Human), UniProt Q07889); assay: Ras-SOS interaction assay (HTRF); assay type: biochemical
[1] = system: MIA PaCa-2 cells (K-Ras G12C); assay: Ras-SOS cellular growth inhibition assay (CellTiter-Glo, 3D); assay type: cell-based
Summary of the method: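 MIA PaCa-2 cells grown in ultra-low-attachment plates (3D) in DMEM/Ham's F12 with 10% FCS and 2.5% horse serum, treated the day after seeding with a 9-point 3-fold compound series for about 5 days. Viability by CellTiter-Glo luminescence; IC50 from four-parameter fit.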

[2] = system: NCI-H1975 cells (EGFR T790M L858R); assay: EGFR-SOS cellular inhibition assay (CellTiter-Glo, 3D); assay type: cell-based
[3] = In vitro plasma protein binding (PPB); assay type: in vitro ADME; settings: percentage of free/unbound compound
[4] = K-RasG13D utilized, read-out: IC50 inhibition of SOS
[5] = K-RasG13D, read-out: IC50 value against SOS1
[6] = Homo sapiens, MIA PaCa-2, 120 h, MIA PaCa-2, 3D proliferation, about 5 days, read-out: Bio-Cell-Prolif-3D (MiaPaca2 IC50)
[7] = Homo sapiens, MIA PaCa-2, MIA PaCa-2, read-out: IC50 in inhibiting MIA PaCa-2 cell growth
[8] = Homo sapiens, 120 h, NCI-H1975, 3D proliferation, about 5 days, read-out: Bio-Cell-Prolif-3D (H1975 IC50)
[9] = Homo sapiens, NCI-H1975, EGFR T790M L858R, read-out: IC50 in inhibiting growth of NCI-H1975 cell line

Sequence of SOS1 (Q07889 564-1049): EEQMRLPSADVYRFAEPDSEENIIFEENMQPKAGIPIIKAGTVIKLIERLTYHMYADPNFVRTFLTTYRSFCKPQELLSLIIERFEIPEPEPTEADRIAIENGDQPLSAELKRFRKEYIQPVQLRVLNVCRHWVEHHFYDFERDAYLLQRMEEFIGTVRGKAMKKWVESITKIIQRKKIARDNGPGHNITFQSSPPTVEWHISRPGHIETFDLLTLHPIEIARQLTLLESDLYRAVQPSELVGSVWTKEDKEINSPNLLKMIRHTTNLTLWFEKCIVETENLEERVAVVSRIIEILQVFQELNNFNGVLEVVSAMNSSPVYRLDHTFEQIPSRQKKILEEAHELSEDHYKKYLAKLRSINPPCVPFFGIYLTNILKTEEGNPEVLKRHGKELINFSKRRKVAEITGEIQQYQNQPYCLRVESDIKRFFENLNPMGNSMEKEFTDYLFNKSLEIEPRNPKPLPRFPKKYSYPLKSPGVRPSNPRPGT

Compound | IC50 (SOS1; [4]) | IC50 (SOS1; [5]) | IC50 [1, 6] | IC50 [1, 7] | IC50 [2, 8] | IC50 [2, 9] | DMPK-invitro-PPB (Mouse Unbound) [%] [3] | IC50 ([1]; MIA PaCa-2, 3D proliferation, about 5 days, read-out: Bio-Cell-Prolif-3D (MiaPaca2 IC50)) | IC50 ([2]; NCI-H1975, 3D proliferation, about 5 days, read-out: Bio-Cell-Prolif-3D (H1975 IC50)) | IC50 ([2]; NCI-H1975, EGFR T790M L858R, read-out: IC50 in inhibiting growth of NCI-H1975 cell line)
COc1nc2nc(C)nc(N[C@H](C)c3cccc(C(F)(F)F)c3F)c2cc1C1CCS(=O)(=O)CC1 [Compound 120, (R)-4-(4-((1-(2-fluoro-3-(trifluoromethyl)phenyl)ethyl)amino)-7-methoxy-2-methylpyrido[2,3-d]pyrimidin-6-yl)tetrahydro-2H-thiopyran 1,1-dioxide] | < 100 nM | < 50 nM | ≤ 1000 nM | < 500 nM | ≤ 1000 nM | < 500 nM | 0.73% | – | – | –
COc1nc2nc(C)nc(N[C@H](C)c3cccc(C(F)F)c3F)c2cc1N1CCS(=O)(=O)CC1 [Compound 131, (R)-4-(4-((1-(3-(difluoromethyl)-2-fluorophenyl)ethyl)amino)-7-methoxy-2-methylpyrido[2,3-d]pyrimidin-6-yl)thiomorpholine 1,1-dioxide] | < 100 nM | < 50 nM | ≤ 1000 nM | < 500 nM | ≤ 1000 nM | < 500 nM | 4.01% | – | – | –
COc1nc2ncnc(N[C@H](C)c3cccc(C(F)F)c3F)c2cc1C1CCS(=O)(=O)CC1 [Compound 146, (R)-4-(4-((1-(3-(difluoromethyl)-2-fluorophenyl)ethyl)amino)-7-methoxypyrido[2,3-d]pyrimidin-6-yl)tetrahydro-2H-thiopyran 1,1-dioxide] | < 100 nM | < 50 nM | – | < 500 nM | – | – | 3.58% | ≤ 1000 nM | ≤ 1000 nM | < 500 nM
COc1nc2nc(C)nc(N[C@H](C)c3cccc(C(C)(F)F)c3F)c2cc1C1CCS(=O)(=O)CC1 [Compound 150, (R)-4-(4-((1-(3-(1,1-difluoroethyl)-2-fluorophenyl)ethyl)amino)-7-methoxy-2-methylpyrido[2,3-d]pyrimidin-6-yl)tetrahydro-2H-thiopyran 1,1-dioxide] | – | < 50 nM | ≤ 1000 nM | < 500 nM | ≤ 1000 nM | < 500 nM | 2.65% | – | – | –
COc1nc2ncnc(N[C@H](C)c3cccc(C(F)F)c3F)c2cc1N1CCN(C)CC1 [Compound 156, (R)-N-(1-(3-(difluoromethyl)-2-fluorophenyl)ethyl)-7-methoxy-6-(4-methylpiperazin-1-yl)pyrido[2,3-d] pyrimidin-4-amine] | < 100 nM | < 50 nM | ≤ 1000 nM | < 500 nM | ≤ 1000 nM | < 500 nM | 14.53% | – | – | –
COc1nc2ncnc(N[C@H](C)c3cccc(C(F)(F)F)c3F)c2cc1N1CCN(C(C)C)CC1 [Compound 159, (R)-N-(1-(2-fluoro-3-(trifluoromethyl)phenyl)ethyl)-6-(4-isopropylpiperazin-1-yl)-7-methoxypyrido[2,3-d] pyrimidin-4-amine] | < 100 nM | < 50 nM | ≤ 1000 nM | < 500 nM | ≤ 1000 nM | < 500 nM | 3.43% | – | – | –
COc1nc2ncnc(N[C@H](C)c3cccc(C(F)(F)F)c3C)c2cc1N1CCN(C2CCOCC2)CC1 [Compound 160, (R)-7-methoxy-N-(1-(2-methyl-3-(trifluoromethyl)phenyl)ethyl)-6-(4-(tetrahydro-2H-pyran-4-yl)piperazin-1-yl)pyrido[2,3-d]pyrimidin-4-amine] | < 100 nM | < 50 nM | ≤ 1000 nM | – | ≤ 1000 nM | < 500 nM | 1.05% | – | – | –
COc1nc2ncnc(N[C@H](C)c3cccc(C(F)(F)F)c3F)c2cc1C1CCN(C(C)C)CC1 [Compound 162, (R)-N-(1-(2-fluoro-3-(trifluoromethyl)phenyl)ethyl)-6-(1-isopropylpiperidin-4-yl)-7-methoxypyrido[2,3-d] pyrimidin-4-amine] | < 100 nM | < 50 nM | ≤ 1000 nM | – | ≤ 1000 nM | < 500 nM | 2.19% | – | – | –
COc1nc2ncnc(N[C@H](C)c3cccc(C(F)(F)F)c3F)c2cc1C1CCN(C2CCOCC2)CC1 [Compound 164, (R)-N-(1-(2-fluoro-3-(trifluoromethyl)phenyl)ethyl)-7-methoxy-6-(1-(tetrahydro-2H-pyran-4-yl)piperidin-4-yl)pyrido[2,3-d]pyrimidin-4-amine] | < 100 nM | < 50 nM | ≤ 1000 nM | < 500 nM | ≤ 1000 nM | < 500 nM | 1.6% | – | – | –
COc1nc2nc(C)nc(N[C@H](C)c3cccc(C(F)(F)F)c3C)c2cc1N1CCN(C(C)C)CC1 [Compound 171, (R)-6-(4-isopropylpiperazin-1-yl)-7-methoxy-2-methyl-N-(1-(2-methyl-3-(trifluoromethyl)phenyl)ethyl)pyrido[2,3-d]pyrimidin-4-amine] | < 100 nM | < 50 nM | ≤ 1000 nM | – | ≤ 1000 nM | < 500 nM | 0.12% | – | – | –
COc1nc2ncnc(N[C@H](C)c3cccc(C(F)(F)C(C)(C)O)c3)c2cc1N1CCN(C(C)C)CC1 [Compound 202, (R)-1,1-difluoro-1-(3-(1-((6-(4-isopropylpiperazin-1-yl)-7-methoxypyrido [2,3-d]pyrimidin-4-yl)amino)ethyl)phenyl)-2-methylpropan-2-ol] | < 100 nM | < 50 nM | ≤ 1000 nM | < 500 nM | ≤ 1000 nM | < 500 nM | 19.85% | – | – | –
COc1nc2nc(C)nc(N[C@H](C)c3cccc(C(F)(F)F)c3F)c2cc1N1CCN(C(C)C)CC1 [Compound 211, (R)-N-(1-(2-fluoro-3-(trifluoromethyl)phenyl)ethyl)-6-(4-isopropylpiperazin-1-yl)-7-methoxy-2-methylpyrido[2,3-d]pyrimidin-4-amine] | < 100 nM | < 50 nM | ≤ 1000 nM | < 500 nM | ≤ 1000 nM | < 500 nM | 0.41% | – | – | –
COc1nc2nc(C)nc(N[C@H](C)c3cccc(C(F)(F)F)c3C)c2cc1C1CCN(C(C)C)CC1 [Compound 236, (R)-6-(1-isopropylpiperidin-4-yl)-7-methoxy-2-methyl-N-(1-(2-methyl-3-(trifluoromethyl)phenyl)ethyl)pyrido [2,3-d]pyrimidin-4-amine] | < 100 nM | < 50 nM | ≤ 1000 nM | < 500 nM | ≤ 1000 nM | < 500 nM | 0.11% | – | – | –
COc1nc2ncnc(N[C@H](C)c3cccc(C(C)(F)F)c3F)c2cc1C1CCS(=O)(=O)CC1 [Compound 267, (R)-4-(4-((1-(3-(1,1-difluoroethyl)-2-fluorophenyl)ethyl)amino)-7-methoxypyrido[2,3-d]pyrimidin-6-yl)tetrahydro-2H-thiopyran 1,1-dioxide] | < 100 nM | < 50 nM | ≤ 1000 nM | < 500 nM | ≤ 1000 nM | < 500 nM | 5.6% | – | – | –
COc1nc2ncnc(N[C@H](C)c3cccc(C(F)(F)C(C)(C)O)c3F)c2cc1N1CCN(C(C)C)CC1 [Compound 273, (R)-1,1-difluoro-1-(2-fluoro-3-(1-((6-(4-isopropylpiperazin-1-yl)-7-methoxypyrido[2,3-d]pyrimidin-4-yl)amino)ethyl)phenyl)-2-methylpropan-2-ol] | < 100 nM | < 50 nM | ≤ 1000 nM | < 500 nM | ≤ 1000 nM | < 500 nM | 12.22% | – | – | –
COc1nc2nc(C)nc(N[C@H](C)c3cccc(C(F)(F)F)c3F)c2cc1C1CCN(C(C)C)CC1 [Compound 287, (R)-N-(1-(2-fluoro-3-(trifluoromethyl)phenyl)ethyl)-6-(1-isopropylpiperidin-4-yl)-7-methoxy-2-methylpyrido[2,3-d]pyrimidin-4-amine] | < 100 nM | < 50 nM | ≤ 1000 nM | < 500 nM | ≤ 1000 nM | < 500 nM | 0.39% | – | – | –
COc1nc2nc(C)nc(N[C@H](C)c3cccc(C(F)(F)F)c3F)c2cc1N1CCS(=O)(=O)CC1 [Compound 305, (R)-4-(4-((1-(2-fluoro-3-(trifluoromethyl)phenyl)ethyl)amino)-7-methoxy-2-methylpyrido[2,3-d]pyrimidin-6-yl)thiomorpholine 1,1-dioxide] | < 100 nM | < 50 nM | ≤ 1000 nM | < 500 nM | ≤ 1000 nM | < 500 nM | 1.24% | – | – | –
COc1nc2ncnc(N[C@H](C)c3cccc(C(F)(F)F)c3F)c2cc1N1CCS(=O)(=O)CC1 [Compound 308, (R)-4-(4-((1-(2-fluoro-3-(trifluoromethyl)phenyl)ethyl)amino)-7-methoxypyrido[2,3-d]pyrimidin-6-yl)thiomorpholine 1,1-dioxide] | < 100 nM | < 50 nM | ≤ 1000 nM | < 500 nM | ≤ 1000 nM | < 500 nM | 2.91% | – | – | –
